Measured values: patent publication US11672795B2, “Compositions and methods for treating pulmonary vascular disease” (UNIVERSITY OF PITTSBURGH-OF THE COMMONWEALTH SYSTEM OF …, priority 2016, dated 2023)
Entries after “also recorded” stand apart in the source; their conditions may differ.

Assays:
[1] = system: Lox; experiment: Lox activity in lungs of monocrotaline-exposed rats; assay type: in vivo, rat; conditions: daily BAPN or daily i.p. verteporfin 25 mg/kg, vs vehicle
Description: Monocrotaline-treated rats: As we previously described (7, 8), male Sprague-Dawley rats (10-14 week old) were injected with 60 mg/kg monocrotaline at time 0; at 0-4 weeks post-exposure, right heart catheterization was performed followed by harvest of lung tissue for RNA extraction or paraffin embedding, as described below (section: Tissue harvest).
To establish definitively whether periarteriolar ECM remodeling and YAP/TAZ modulate vascular cell metabolism in vivo, it was determined whether alteration of YAP/TAZ-dependent mechanotransduction directly controls glutaminolysis and PH development in the monocrotaline rat model. First, using a known pharmacologic inhibitor (β-aminoproprionitrile, BAPN) of Lox, the enzyme responsible for collagen crosslinking and consequent matrix stiffening, it was determined whether inhibition of ECM stiffening could prevent the metabolic changes and downstream PH manifestations observed in monocrotaline-exposed rats (FIG. 4A). […] Such metabolic effects further decreased vascular endothelial and smooth muscle proliferation, as reflected by in situ arteriolar staining (FIG. 4G), and ameliorated hemodynamic and histologic manifestations of PH, as measured by vascular remodeling and muscularization (FIG. 4G), and right ventricular systolic pressure (RVSP) (FIG. 4H).

[2] = system: monocrotaline-exposed rats; experiment: Histology and immunofluorescence of lung sections of monocrotaline-exposed rats; assay type: in vivo, rat; conditions: for CD31/PCNA and α-SMA/PCNA double-positive cells (vascular endothelial and smooth muscle proliferation) / GLS1 vascular intensity / YAP1+ cells / vessel thickness and muscularization (vascular remodeling): daily BAPN or daily i.p. verteporfin 25 mg/kg; for pulmonary arteriolar muscularization / pulmonary arteriolar remodeling / Ki67/PCNA positive cells in CD31/vWF+ endothelial compartment / Ki67/PCNA positive cells in α-SMA+ medial (smooth muscle) compartment: daily i.p. 10 mg/kg; for pulmonary arteriolar muscularization / pulmonary arteriolar remodeling: C968 from day 2, CB839 from day 7
Description: Lung sections (5 μm) were deparaffinized and high temperature antigen retrieval was performed, followed by blocking in TBS/BSA 5%, 10% donkey serum and exposure to primary antibody and biotinylated secondary antibody (Vectastain ABC kit, Vector Labs) for immunohistochemistry or Alexa 488, 568 and 647-conjugated secondary antibodies (Thermo Fisher Scientific) for immunofluorescence. A primary antibody against YAP1 (#4912; 1/200 or sc101199; 1/50) were obtained from Cell Signaling and Santa Cruz Biotechnology respectively. Primary antibodies against, GLS1 (ab156876; 1/100), PC (ab115579; 1/100), LDHA (ab47010; 1/200) and α-SMA (ab32575; 1/1000) were purchased from Abcam. A primary antibody against CD31 (sc-1506; 1/100), was purchased from Santa Cruz Biotechnology. A primary antibody against PCNA (13-3900, 1/100) was purchased from Thermo Fisher Scientific. In most cases, color development was achieved by adding streptavidin-biotinylated alkaline phosphatase complex (Vector Labs) followed by Vector Red alkaline phosphatase substrate solution (Vector Labs). Levamisole was added to block endogenous alkaline phosphatase activity (Vector Labs). Pictures were obtained using an Olympus Bx51 microscope or ZEISS LSM Exciter confocal microscope. Small pulmonary vessels (<100 µm diameter) present in a given tissue section (>10 vessels/section) that were not associated with bronchial airways were selected for analysis (N>5 animals/group). Intensity of staining was quantified using ImageJ software (NIH). Degree of pulmonary arteriolar muscularization was assessed in paraffin-embedded lung sections stained for α-SMA by calculation of the proportion of fully and partially muscularized peripheral (<100 μm diameter) pulmonary arterioles to total peripheral pulmonary arterioles, as previously described (12). All measurements were performed blinded to condition.
To induce PH, male Sprague-Dawley rats (10-14 week old) were injected intraperitoneally with 60 mg/kg monocrotaline (Sigma-Aldrich). After two days, rats underwent intraperitoneal injection daily with 25 mg/kg of verteporfin (Active Biochemicals Company, Ltd) solubilized in 5% dimethyl sulfoxide (DMSO, Sigma-Aldrich). Two days after the last injection on day 21 post-monocrotaline injection, right heart catheterization was performed followed by harvest of lung tissue and CD31+ cells for RNA or protein extraction, paraffin embedding, or cryopreservation with OCT (Sigma-Aldrich), as we described (2).
To induce PH, male Sprague-Dawley rats (10-14 week old) were injected intraperitoneally with 60 mg/kg monocrotaline (Sigma-Aldrich). After two days, serial intraperitoneal injections were given daily of C968 (10 mg/kg, Sigma-Aldrich), and after seven days post-monocrotaline injection, serial intraperitoneal injections were given daily of CB839 (10 mg/kg, Selleck Chemicals). Two days after the last injection on day 21 post-monocrotaline injection, right heart catheterization was performed followed by harvest of lung tissue and CD31+ cells for RNA or protein extraction, paraffin embedding, or cryopreservation with OCT (Sigma-Aldrich), as we described (2).

[3] = system: PAAFs; experiment: PAAF-dependent ECM remodelling on cytokine stimulation (RT-qPCR, picrosirius red); assay type: cell-based; conditions: for TGF-b-induced ECM related genes expression / fibroblast activation marker (a-SMA) expression: PAAFs, RT-qPCR; for fibroblast activation marker (a-SMA) expression: TGF-b; for PAAFs dependent ECM remodelling: stimulation by pro-inflammatory cytokines (EDN1, IL6 or TGF-b)
Text: A-C) Pharmacological inhibition of GLS1 by either BPTES, C968 or CB839 blunted metabolic activation of PAAFs cultivated on stiff matrix as reflected by decreased glutaminolysis (A), glycolysis (B) and aspartate production (C). D-E) Pharmacological inhibition of GLS1 by either BPTES, C968 or CB839 decreased PAAFs dependent ECM remodelling upon stimulation by pro-inflammatory cytokines (EDN1, IL6 or TGF-b). […] G-H) Fibrilar collagen visualization (G) and quantification (H) by picrosirius red staining confirmed a decreased of ECM remodelling by activated PAAF (TGF-b) in presence of GLS1 inhibitors. I-M) PAAFs were cultivated upon indicated treatments. Cells were removed and pulmonary arterial endothelial cells (PAECs) were cultivated on the matrix synthesized by the PAAF. […] Data are expressed as mean±SEM (*P<0.05, § P<0.01, #P<0.001) of at least 3 independent experiments performed in triplicate. Paired samples were compared by 2-tailed Student's t test, while 1-way ANOVA and post-hoc Tukey's tests were used for group comparisons.
Messenger RNAs were reverse transcribed using the Multiscript RT kit (Life Technologies) to generate cDNA. cDNA was amplified via fluorescently labeled Taqman primer sets using an Applied Biosystems 7900HT Fast Real Time PCR device. To specifically determine the relative expression of the two GLS1 isoforms KGA and GAC, TaqMan gene expression assays Hs01014019_m1 and Hs01022166_m1 were used respectively. Fold-change of RNA species was calculated using the formula (2^−ΔΔCt), normalized to RPLP0 expression.
Picrosirius Red stain was achieved through the use of 5 μm paraffin sections stained with 0.1% Picrosirius Red (Direct Red80, Sigma-Aldrich) and counterstained with Weigert's hematoxylin to reveal fibrillar collagen. The sections were then serially imaged using with an analyzer and polarizer oriented parallel and orthogonal to each other. Microscope conditions (lamp brightness, condenser opening, objective, zoom, exposure time, and gain parameters) were maintained throughout the imaging of all samples. A minimal threshold was set on appropriate control sections for each experiment in which only the light passing through the orthogonally-oriented polarizers representing fibrous structures (i.e., excluding residual light from the black background) was included. The threshold was maintained for all images across all conditions within each experiment. The area of the transferred regions that was covered by the thresholded light was calculated and at least 10 sections/vessel per condition were averaged together (NIH ImageJ software). Targeted LC-MS/MS

[4] = C968 from day 2, CB839 from day 7, 10 mg/kg
[5] = C968 from day 2, CB839 from day 7, listed as CB-839, 10 mg/kg

Row | SMILES | LOX activity in lungs [1] | CD31/PCNA and α-SMA/PCNA double-positive cells (vascular endothelial and smooth muscle proliferation) [2] | GLS1 vascular intensity [2] | YAP1+ cells [2] | vessel thickness and muscularization (vascular remodeling) [2] | TGF-b-induced ECM related genes expression [3] | fibroblast activation marker (a-SMA) expression [3] | PAAFs dependent ECM remodelling [3] | pulmonary arteriolar muscularization [2] | pulmonary arteriolar remodeling [2] | Ki67/PCNA positive cells in CD31/vWF+ endothelial compartment [2, 4] | Ki67/PCNA positive cells in α-SMA+ medial (smooth muscle) compartment [2, 4] | Ki67/PCNA positive cells in CD31/vWF+ endothelial compartment [2, 5] | Ki67/PCNA positive cells in α-SMA+ medial (smooth muscle) compartment [2, 5] | CD31/PCNA and α-SMA/PCNA double-positive cells (vascular endothelial and smooth muscle proliferation) ([2]; listed as verteporfin) | vessel thickness and muscularization (vascular remodeling) ([2]; listed as verteporfin)
1 | N#CCCN [BAPN, β-aminoproprionitrile] | decreased | decreased | decreased | decreased | decreased; also recorded: ameliorated | – | – | – | – | – | – | – | – | – | – | –
2 | CN(C)c1ccc(C2Nc3ccc4ccccc4c3C3=C2C(=O)CC(C)(C)C3)cc1Br (stereo not shown) [C968, 5-(3-Bromo-4-(dimethylamino)phenyl)-2,2-dimethyl-2,3,5,6-tetrahydrobenzo[a]phenanthridin-4(1H)-one] | – | – | – | – | – | decreased | decreased | decreased | significantly decreased | significantly decreased | reduced; also recorded: decreased | reduced; also recorded: decreased | – | – | – | –
3 | O=C(Cc1cccc(OC(F)(F)F)c1)Nc1ccc(CCCCc2nnc(NC(=O)Cc3ccccn3)s2)nn1 [CB839] | – | – | – | – | – | decreased | decreased | decreased | significantly decreased | significantly decreased | reduced | reduced | decreased | decreased | – | –
4 | C=Cc1c(C)c2cc3nc(cc4[nH]c(cc5nc(cc1[nH]2)C(C)=C5CCC(=O)O)c(CCC(=O)OC)c4C)[C@@]1(C)C3=CC=C(C(=O)OC)[C@H]1C(=O)OC [Verteporfin, 3-[(23S,24R)-14-ethenyl-5-(3-methoxy-3-oxopropyl)-22,23-bis(methoxycarbonyl)-4,10,15,24-tetramethyl-25,26,27,28-tetraazahexacyclo[16.6.1.1^3,6.1^8,11.1^13,16.0^19,24]octacosa-1,3,5,7,9,11(27),12,14,16,18(25),19,21-dodecaen-9-yl]propanoic acid] | decreased | decreased | decreased | decreased | decreased | – | – | – | – | – | – | – | – | – | improved | reductions
